From publication PMC11472331 (Journal of Medicinal Chemistry, 2024)
Read-outs that look alike come from different tables or passages of the source.

Experiments:
LSD1 [1] = target: T1, LSD1 (Homo sapiens, UniProt O60341); details: read-out: IC50 (μM, LSD1 inhibition); 10-dose IC50 mode, singlet, threefold serial dilution starting at 100 μM
HDAC1 = HDAC1 (Homo sapiens, UniProt Q13547); test: HDAC isoform inhibition assay (Reaction Biology); details: read-out: IC50 HDAC1; 10-dose IC50 mode, threefold serial dilution starting at 10 μM
Chain of HDAC1 (Q13547 whole entry, canonical isoform): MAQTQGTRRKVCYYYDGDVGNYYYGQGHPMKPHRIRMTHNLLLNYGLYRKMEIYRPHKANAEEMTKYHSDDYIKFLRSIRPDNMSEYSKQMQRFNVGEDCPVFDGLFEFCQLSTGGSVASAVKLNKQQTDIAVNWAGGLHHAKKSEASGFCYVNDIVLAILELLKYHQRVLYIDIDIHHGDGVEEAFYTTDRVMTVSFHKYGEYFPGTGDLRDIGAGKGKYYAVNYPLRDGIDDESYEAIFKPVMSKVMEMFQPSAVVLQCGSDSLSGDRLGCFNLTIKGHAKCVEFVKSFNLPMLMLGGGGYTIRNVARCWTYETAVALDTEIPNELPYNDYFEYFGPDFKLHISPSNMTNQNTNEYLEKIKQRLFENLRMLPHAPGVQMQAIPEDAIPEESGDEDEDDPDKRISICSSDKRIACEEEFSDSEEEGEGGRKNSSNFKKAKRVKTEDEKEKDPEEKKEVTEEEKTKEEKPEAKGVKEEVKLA

HDAC6 = target: T2, HDAC6 (Homo sapiens, UniProt Q9UBN7); test: HDAC isoform inhibition assay (Reaction Biology)
T2 sequence (Q9UBN7 1-1215): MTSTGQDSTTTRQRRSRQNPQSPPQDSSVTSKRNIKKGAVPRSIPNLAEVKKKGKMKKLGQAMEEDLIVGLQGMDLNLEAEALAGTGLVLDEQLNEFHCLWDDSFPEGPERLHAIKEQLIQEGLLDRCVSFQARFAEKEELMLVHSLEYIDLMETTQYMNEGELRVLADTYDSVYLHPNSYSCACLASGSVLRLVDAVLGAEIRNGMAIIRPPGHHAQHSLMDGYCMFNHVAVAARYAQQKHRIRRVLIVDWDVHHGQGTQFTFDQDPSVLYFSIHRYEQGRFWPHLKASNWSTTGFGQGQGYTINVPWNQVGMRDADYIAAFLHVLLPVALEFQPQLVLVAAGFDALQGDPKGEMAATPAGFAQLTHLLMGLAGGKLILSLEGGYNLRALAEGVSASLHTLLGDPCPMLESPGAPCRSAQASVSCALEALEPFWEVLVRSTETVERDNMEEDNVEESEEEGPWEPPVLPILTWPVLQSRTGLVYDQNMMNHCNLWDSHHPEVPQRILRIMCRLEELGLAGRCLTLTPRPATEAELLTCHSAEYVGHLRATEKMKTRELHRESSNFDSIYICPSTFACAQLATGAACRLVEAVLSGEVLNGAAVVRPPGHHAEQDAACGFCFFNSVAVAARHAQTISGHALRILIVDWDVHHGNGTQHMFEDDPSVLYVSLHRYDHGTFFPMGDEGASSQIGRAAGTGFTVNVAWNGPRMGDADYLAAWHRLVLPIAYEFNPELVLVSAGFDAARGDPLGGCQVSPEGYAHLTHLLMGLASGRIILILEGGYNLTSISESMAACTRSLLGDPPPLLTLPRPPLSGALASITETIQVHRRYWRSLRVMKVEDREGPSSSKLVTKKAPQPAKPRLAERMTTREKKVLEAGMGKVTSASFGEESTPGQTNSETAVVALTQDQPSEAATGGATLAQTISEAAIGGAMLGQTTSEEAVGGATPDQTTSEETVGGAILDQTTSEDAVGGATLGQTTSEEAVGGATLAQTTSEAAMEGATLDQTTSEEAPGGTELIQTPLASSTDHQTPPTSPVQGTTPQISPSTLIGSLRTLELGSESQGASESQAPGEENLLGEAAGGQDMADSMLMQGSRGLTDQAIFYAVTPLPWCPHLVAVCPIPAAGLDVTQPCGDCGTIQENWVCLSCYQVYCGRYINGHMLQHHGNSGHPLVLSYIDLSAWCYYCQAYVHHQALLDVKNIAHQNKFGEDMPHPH

HDAC2 = HDAC2 (Homo sapiens, UniProt Q92769); test: HDAC isoform inhibition assay (Reaction Biology); details: read-out: IC50 HDAC2; 10-dose IC50 mode, threefold serial dilution starting at 10 μM
Chain of HDAC2 (Q92769 whole entry, canonical isoform): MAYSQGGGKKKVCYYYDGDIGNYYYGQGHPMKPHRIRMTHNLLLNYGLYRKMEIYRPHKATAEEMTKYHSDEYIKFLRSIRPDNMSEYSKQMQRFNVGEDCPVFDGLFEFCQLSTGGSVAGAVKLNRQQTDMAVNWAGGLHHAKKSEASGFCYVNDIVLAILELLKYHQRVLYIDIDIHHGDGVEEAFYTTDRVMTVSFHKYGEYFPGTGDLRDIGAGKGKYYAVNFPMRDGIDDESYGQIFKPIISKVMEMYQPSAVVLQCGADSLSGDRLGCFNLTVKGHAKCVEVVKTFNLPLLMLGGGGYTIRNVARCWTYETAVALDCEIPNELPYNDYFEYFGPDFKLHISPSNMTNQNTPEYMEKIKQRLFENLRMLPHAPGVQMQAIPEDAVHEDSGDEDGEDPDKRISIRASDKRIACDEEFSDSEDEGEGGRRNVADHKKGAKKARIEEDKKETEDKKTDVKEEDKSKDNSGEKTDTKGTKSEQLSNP

LSD1 [2] = target: T1, LSD1; test: KDM1/LSD1 activity quantification/colorimetric assay; assay type: biochemical; details: 1 and 10 μM; compared with Corgline, selegiline, tranylcypromine, pargyline
Experimental: LSD1 inhibitory assay was also performed using the KDM1/LSD1 Activity Quantification/Colorimetric Assay Kit, as described earlier.[38]

HCT-116 = HCT-116 xenograft model; assay type: in vivo, Balb/c nude mice; details: 50 or 100 mg/kg ip qd, nude mice
in vivo = details: male, Sprague-Dawley, rat, plasma, po, 20 mg/kg
HDAC8 = target: T3, HDAC8 (Homo sapiens, UniProt Q9BY41); test: HDAC isoform inhibition assay (Reaction Biology); details: read-out: IC50 HDAC8; 10-dose IC50 mode, threefold serial dilution starting at 10 μM
T3 sequence (Q9BY41 1-377): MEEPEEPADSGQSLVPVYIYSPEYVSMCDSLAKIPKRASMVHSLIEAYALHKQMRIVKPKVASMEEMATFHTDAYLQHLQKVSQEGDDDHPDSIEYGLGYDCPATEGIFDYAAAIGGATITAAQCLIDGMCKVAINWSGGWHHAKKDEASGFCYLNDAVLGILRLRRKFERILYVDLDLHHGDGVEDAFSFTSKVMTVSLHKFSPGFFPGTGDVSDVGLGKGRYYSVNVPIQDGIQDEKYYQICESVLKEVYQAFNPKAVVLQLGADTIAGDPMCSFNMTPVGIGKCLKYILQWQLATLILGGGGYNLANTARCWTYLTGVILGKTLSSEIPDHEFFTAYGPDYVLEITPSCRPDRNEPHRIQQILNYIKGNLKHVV

[3] = read-out: IC50 HDAC6, 10-dose IC50 mode, threefold serial dilution starting at 10 μM

Row | IC50 (LSD1 [1]) | IC50 (HDAC6; [3]) | IC50 (HDAC2) | IC50 (HDAC8) | SMILES | IC50 (HDAC1) | other results
1 | 0.899 µM | 9.66 nM | 343 nM | 753 nM | O=C(/C=C/c1ccc(S(=O)(=O)N[C@@H]2C[C@H]2c2ccccc2)cc1)NO [Compound 3, (E)-N-Hydroxy-3-(4-(N-((1R,2S)-2-phenylcyclopropyl)sulfamoyl)phenyl)acrylamide] | 0.116 µM | IC50 (HDAC6): 9 nM
2 | 38.3 µM |  |  |  | O=C(CCCCCC(=O)N[C@@H]1C[C@H]1c1ccccc1)NO [Compound 4, N1-Hydroxy-N7-((1R,2S)-2-phenylcyclopropyl)heptanediamide] |  | 
3 | 14.6 µM |  |  |  | O=C(CCCCCCC(=O)N[C@@H]1C[C@H]1c1ccccc1)NO [Compound 5, N1-Hydroxy-N8-((1R,2S)-2-phenylcyclopropyl)octanediamide] |  | 
4 | 7.68 µM |  |  |  | O=C(CCCCCCCCC(=O)N[C@@H]1C[C@H]1c1ccccc1)NO [Compound 7, N1-Hydroxy-N10-((1R,2S)-2-phenylcyclopropyl)decanediamide] |  | 
5 | 1.61 µM | 3730 nM |  |  | O=C(CCCCCCC(=O)Nc1ccc(CN[C@@H]2C[C@H]2c2ccccc2)cc1)NO [Compound 8] |  | 
6 | 2.4 µM | 9.32 nM | 8300 nM | 407 nM | O=C(NO)c1ccc(CN2CCC(S(=O)(=O)N[C@@H]3C[C@H]3c3ccccc3)CC2)cc1 [Compound 10, N-Hydroxy-4-((4-(N-((1R,2S)-2-phenylcyclopropyl)sulfamoyl)piperidin-1-yl)methyl)benzamide] | 4.12 µM | IC50 (HDAC6; read-out: HDAC6 IC50 as given in the text, rounded values of the running text): 9 nM

Row | SMILES | IC50 (LSD1 [1]) | IC50 (HDAC6; [3]) | IC50 (HDAC2) | IC50 (HDAC8) | IC50 (HDAC1) | other results
7 | O=C(NO)c1ccc(CN[C@@H]2C[C@H]2c2ccccc2)cc1 [Compound 1, N-Hydroxy-4-((((1R,2S)-2-phenylcyclopropyl)amino)methyl)benzamide] | 28 µM |  |  |  | 8.72 µM | 
8 | O=C(/C=C/c1cccc(S(=O)(=O)N[C@@H]2C[C@H]2c2ccccc2)c1)NO [Compound 2, (E)-N-Hydroxy-3-(3-(N-((1R,2S)-2-phenylcyclopropyl)sulfamoyl)phenyl)acrylamide] | 0.571 µM | 11.8 nM | 373 nM |  | 0.125 µM | IC50 (HDAC6): 11 nM; inhibition of LSD1 activity versus standard LSD1 inhibitors (LSD1 [2]): more effective in inhibiting the activity of LSD1 than the standard LSD1 inhibitor; toxicity based on body weight measurements (HCT-116): did not cause evident toxicity in animals; Tmax (in vivo): 1.1 ± 0.9 h
9 | O=C(NO)c1ccc(CN2CCC(CN[C@@H]3C[C@H]3c3ccccc3)CC2)cc1 [Compound 9, N-Hydroxy-4-((4-((((1R,2S)-2-phenylcyclopropyl)amino)methyl)piperidin-1-yl)methyl)benzamide] |  |  |  | 1260 nM | 12.9 µM | 
